The text below walks through data of US8563516B2, “Foxp3 peptide vaccine” (OncoTherapy Science, Inc., priority 2007, dated 2013).

Entries after “also recorded” stand apart in the source; their conditions may differ.

Assay [1] deals with peptide-pulsed A24LCL cells or T2 cells. As to the kind of experiment: In vitro CTL induction by peptide-loaded dendritic cells (summary statements). Type of assay: cell-based, human. As to conditions: for specific CTL activity: against peptide pulsed target cells; for establishment of CTLs: in vitro stimulation of T-cells by DCs loaded with peptide. An excerpt:
Confirmation of CTL inducibility can be accomplished by inducing antigen-presenting cells carrying human MHC antigens (for example, B-lymphocytes, macrophages, and dendritic cells), or more specifically dendritic cells derived from human peripheral blood mononuclear leukocytes, and after stimulation with the peptides, mixing with CD8-positive cells, and then measuring the IFN-gamma produced and released by CTL against the target cells. As the reaction system, transgenic animals that have been produced to express a human HLA antigen (for example, those described in BenMohamed L, Krishnan R, Longmate J, Auge C, Low L, Primus J, Diamond D J, Hum Immunol 61(8): 764-79, 2000 August, Related Articles, Books, Linkout Induction of CTL response by a minimal epitope vaccine in HLA A*0201/DR1 transgenic mice: dependence on HLA class II restricted T(H) response) can be used. For example, the target cells can be radiolabeled with ^51Cr and such, and cytotoxic activity can be calculated from radioactivity released from the target cells. Alternatively, it can be examined by measuring IFN-gamma produced and released by CTL in the presence of antigen-presenting cells that carry immobilized peptides, and visualizing the inhibition zone on the media using anti-IFN-gamma monoclonal antibodies.
(§1) Monocyte-derived dendritic cells (DCs) were used as antigen-presenting cells (APCs) to induce CTL responses against peptides presented on HLA. DCs were generated in vitro as described elsewhere (Horiguchi S. et al. Cancer Res. 59:2950-6). Specifically, peripheral blood mononuclear cells (PBMCs) isolated from normal volunteer (HLA-A*2402 and/or HLA-A*0201) with Ficoll-Plaque (Pharmacia) solution were separated by adherence to plastic tissue culture dish (Becton Dickinson) so as to enrich them for the monocyte fraction. The monocyte-enriched population was cultured in the presence of 1000 U/ml of GM-CSF (R&D System) and 1000 U/ml of IL-4 (R&D System) in AIM-V medium (Invitrogen) containing 2% heat-inactivated autologous serum (AS). After 7 days in the culture, the cytokine-generated DCs were pulsed with 20 mcg/ml of the synthesized peptides in the presence of 3 mcg/ml of beta2-microglobulin for 4 hrs at 20 degrees C. in AIM-V medium. These peptide-pulsed DCs were then inactivated with mitomycin C (MMC) (30 mcg/ml for 30 mins) and mixed at a 1:20 ratio with autologous CD8+ T cells, obtained by positive selection with CD8 Positive Isolation Kit (Dynal). These cultures were set up in 48-well plates (Corning); each well contained 1.5×10^4 peptide-pulsed DCs, 3×10^5 CD8+ T cells and 10 ng/ml of IL-7 (R&D System) in 0.5 ml of AIM-V/2% AS. Three days later, these cultures were supplemented with IL-2 (CHIRON) to a final concentration of 20 IU/ml. On day 7 and 14, the T cells were further restimulated with the peptide-pulsed autologous DCs. The DCs were prepared each time through the same procedure described above. CTL activity was tested against peptide-pulsed A24LCL cells or T2 cells after the 3rd round of peptide stimulation on day 21.
(§2) To examine the specific CTL activity, IFN-gamma ELISPOT assay and IFN-gamma ELISA were performed. Briefly, peptide-pulsed A24-LCL, T2 cell (1×10^4/well) or the cells endogenously expressing Foxp3 and HLA molecule was prepared as a stimulator cells. Cultured CTL lines in 48 wells were used as a responder cells. IFN-gamma ELISPOT assay and IFN-gamma ELISA were performed under manufacture procedure.

Assay [2] concerns peptide-pulsed T2 cells. Briefly: IFN-gamma ELISPOT on CTLs induced with HLA-A0201 restricted Foxp3 peptides. To be noted: FIG. 2A/2B/2C. Type of assay: cell-based, human.
Text: as §1, §2
Resulting CTLs showing detectable specific CTL activity were shown in FIG. 2A, FIG. 2B and FIG. 2C when performed by IFN-gamma ELISPOT assay.

Assay [3] concerns peptide-pulsed T2 cells. Briefly: IFN-gamma ELISA on expanded CTL lines, HLA-A02 peptides. As to conditions: expanded cells of positive wells, FIG. 3A-D, 3F. Type of assay: cell-based, human. As to the method:
CTLs were expanded in culture using a similar method as reported by Riddell, et al. (Walter et al., N Engl J Med 333(16): 1038-44, 1995; Riddell et al., Nat Med 2(2): 216-23, 1996 February). A total of 5×10^4 CTLs were resuspended in 25 ml of AIM-V/5% AS with 2 kinds of human B-lymphoblastoid cell lines, inactivated with MMC, in the presence of 40 ng/ml of anti-CD3 monoclonal antibody (Pharmingen). One day after initiating the cultures, 120 IU/ml of IL-2 were added to the cultures. The cultures were fed with fresh AIM-V/5% AS containing 30 IU/ml of IL-2 on days 5, 8 and 11.
as §2
These cells in the positive wells were expanded and performed IFN-gamma ELISA assay.
On the technique in general: ELISA stands for enzyme-linked immunosorbent assay.

Another assay has as its system BALB/c mice. As to the kind of experiment: Immunogenicity of epitope peptides in BALB/c mice (IFN-gamma ELISPOT on splenocytes). The format is in vivo. How it is done:
IFA-conjugated peptide or IFA only were injected s.c. into BALB/c mice on day 0 and 7. On day 14, splenocytes of vaccinated mice were harvested and used as responder cells. 1×10^4 RLmale1 cells pulsed corresponding peptide (solid square), or no peptide (open square) were used as stimulator cells for IFN-gamma ELISPOT assay. Vaccination using Foxp3-252_h (A) and Foxp3-252_m (B) were performed into five mice (M1-M5) and IFA without any peptide injection were performed into three mice (N1-N3) as control in each assay.
For priming the peptide-specific CTLs, immunization was given using 100 mcl vaccine mixture, which contains 50 mcl HLA-A24 restricted peptide and 50 mcl IFA per mouse. The vaccine was injected s.c. into the right flank of mice for the first immunization on day 0 and in the left flank for the second on the day 7. On day 14, splenocytes from vaccinated mice were used as the responder cells, and RLmale1 cells pulsed with or without peptides were used as the stimulator cells for IFN-gamma ELISPOT assay.
To evaluate the immunogenicity of Foxp3-9-252 peptide for BALB/c mice, immunization with human Foxp3-9-252 peptide (Foxp3-252_h; KLSAMQAHL)(SEQ ID NO: 17) and mouse Foxp3-9-252 peptide (Foxp3-252_m; KLGAMQAHL) (SEQ ID NO: 89) were performed, respectively. After second injection of peptide, peptide specific CTL activity was determined by IFN-gamma ELISPOT assay (FIG. 5).

A further assay concerns 4T1 breast cancer cells. As to the kind of experiment: In vivo antitumor effects of vaccination, 4T1 tumor. Further details: species or system BALB/c mice. To be noted: 4T1 s.c. day 0, vaccination day 3 and 10, compared with control mice, FIG. 6. How it is done: 1×10^5 4T1 breast cancer cell lines were injected into BALB/c mice on day 0. IFA-conjugated with Foxp3-252_h (-open circle-), Foxp3-252_m (-solid square-), no peptide (-solid triangle-) was injected on day 3 and 10. As control of normal tumor growth, non-vaccinated mice (-x-) were also prepared in this assay.
4T1 cells (1×10^5 per mouse) were injected s.c. into the right flank of BALB/c mice on day 0. Vaccination was done on days 3 and 10 using hFoxp3-252 (KLSAMQAHL: SEQ ID NO: 17) or mFoxp3-252 (KLGAMQAHL: SEQ ID NO: […]) IFA-conjugated peptides.
To examine the antitumor effects with peptide vaccination targeted Foxp3, in vivo therapeutic setting was attempted by using 4T1 tumor cells and BALB/c mice. The 4T1 breast cancer cells were injected s.c. into BALB/c mice on day 0, and then vaccination was done on these mice 3 and 10 days after the tumor challenge.

A further assay has as its target T1, HLA-A2 molecule (Homo sapiens, UniProt P04439, D140Y/D185E/D98H/E176V/E277Q/G131W/G231S/I119V/I121R/I166T/I218V/L300P/L318F/N151K/N90K/P208A/P217A/Q86G/Q94H/R138H/R169H/T345S).
T1 construct: peripheral blood mononuclear cells (PBMCs) isolated from normal volunteer (HLA-A*2402 and/or HLA-A*0201); endogenous in cells; host or cells: monocyte-derived dendritic cells of HLA-A*0201 volunteers; T2 cells as stimulators in the read-out
Briefly: CTL induction with Foxp3-9-252 substitutions restricted HLA-A*0201. The format is cell-based. To be noted: FIG. 7C; for IFN-gamma production compared with the control: positive wells. How it is done:
In FIG. 7C CTLs could be induced by stimulation with Foxp3-9-252 substitutions targeted HLA-A2 molecule. CTLs for all substituted peptides targeted HLA-A2 molecule were generated in the way as described in “Materials and Methods”. […] CTL line induced with Foxp3-9-252-9V peptide was used as responder cells. T2 cells incubated with Foxp3-9-252-9V (-solid circle-) or Foxp3-9-252-WT (-open circle-) peptide and without any peptide (-open square-) were used as stimulator cells in this assay (1×10^4 cells/well).
as §1, §2
On the other hand, the present inventers attempted the induction of CTLs using all substitutions restricted HLA-A*0201 including Foxp3-9-252-9V peptide. […] After CTL line induced by stimulation with Foxp3-9-252-9V was established by in vitro expansion, the CTL activity was determined by using stimulator cells pulsed with Foxp3-9-252-WT or Foxp3-9-252-9V peptide.

For assay [4], the system named is 293T that transfected both Foxp3 and HLA-A02. Briefly: Specific CTL activity against target cells expressing Foxp3 and HLA-A02. Type of assay: cell-based, human. How it is done: as §2
The established CTL clone raised against these peptides were examined for their ability to recognize the target cells endogenously expressing Foxp3 and HLA-A*24 or 02. Specific CTL activity against 293T transfected both full length of Foxp3 gene and HLA-A*24 or 02 molecule, which is specific model for the target cells endogenously express Foxp3 and HLA-A*24 or 02, was tested using the CTL lines raised by Foxp3-A02-9-390 (SEQ ID NO: 15) and Foxp3-A02-9-252 (SEQ ID NO: 17) as effector cells. […] Furthermore, these peptides were epitope peptides, which can utilize vaccine targeting Foxp3 expressed T-regs.

Assay [5] relates to peptide-pulsed A24LCL cells. Briefly: IFN-gamma ELISPOT on CTLs induced with HLA-A2402 restricted Foxp3 peptides. The format is cell-based, human. To be noted: FIG. 1A/1B.
Text: as §1, §2
CTLs for the peptides derived from Foxp3 protein were generated according to the method described in the “Materials and Methods”, supra.

For “ALLQDRPHFM (peptide vaccine) [SEQ ID NO 27]”, in assay [1], the “specific CTL activity” value is “significant and specific CTL activity”; the “establishment of CTLs” value was “CTLs were successfully established”. For the same sequence, the “IFN-gamma production of CTLs stimulated with peptide, compared with the control” value with peptide-pulsed T2 cells [2] is on record as “potent IFN-gamma production”. Besides, the “IFN-gamma production of CTL lines stimulated with peptide, compared with the control” value with peptide-pulsed T2 cells [3] is “potent IFN-gamma production”.
Turning to “KLGAMQAHL (peptide vaccine) [SEQ ID NO 88, mouse Foxp3-9-252 peptide]”, the “mice with peptide specific CTL response” value in the assay on BALB/c mice (IFA-conjugated peptide s.c. day 0 and 7, splenocytes day 14, RLmale1 stimulator cells, FIG. 5) is on record as “one of five”. The “induction of epitope specific CTLs in vivo” value in the assay with BALB/c mice (vaccination of BALB/c mice, discussion) was “could induce epitope specific CTLs in vivo”. Besides, the results for the “tumor growth / antitumor effect” value in the assay with 4T1 breast cancer cells (listed as Foxp3-252_m) and in the assay with 4T1 breast cancer cells (listed as mFoxp3-252) were “tumor growth apparently reduced; also recorded: Significant difference of tumor growth suppression” and “obviously anti-tumor effects”, respectively.
As for “KLLAMQAHL (peptide vaccine) [SEQ ID NO 98]”, in the assay with HLA-A2 molecule, the “CTL induction by stimulation with substituted peptide” value was “CTLs were induced”. Moreover, the “IFN-gamma production compared with the control” value in the assay with HLA-A2 molecule (listed as Foxp3-9-252-3L) is on record as “showed IFN-gamma production”; with HLA-A2 molecule (listed as Foxp3-A02-9-252-3L), “peptide-dependent IFN-gamma production”.
As to “KLMAMQAHL (peptide vaccine) [SEQ ID NO 97]”, in the assay with HLA-A2 molecule, the “CTL induction by stimulation with substituted peptide” value is reported as “CTLs were induced”. Besides, the “IFN-gamma production compared with the control” value with HLA-A2 molecule (listed as Foxp3-9-252-3M) is reported as “showed IFN-gamma production”; with HLA-A2 molecule (listed as Foxp3-A02-9-252-3M), “peptide-dependent IFN-gamma production”.
For “SLHKCFVRV (peptide vaccine) [SEQ ID NO 15]”, the “specific CTL activity of CTL lines raised by peptide” value in assay [4] (against 293T transfected with both Foxp3 and HLA-A02, FIG. 4A/4B) is listed as “high specific CTL activity”. Besides, the “specific CTL activity against controls” value in assay [4] (controls of FIG. 4A/4B) was “did not show significant specific CTL activity”. In assay [1], the “specific CTL activity” value was “significant and specific CTL activity”; the “establishment of CTLs” value was “CTLs were successfully established”. For the same sequence, in the assay on peptide-pulsed T2 cells [2], the “IFN-gamma production of CTLs stimulated with peptide, compared with the control” value was “potent IFN-gamma production”. The “IFN-gamma production of CTL lines stimulated with peptide, compared with the control” value with peptide-pulsed T2 cells [3] was “potent IFN-gamma production”.
For “SYPLLANGV (peptide vaccine) [SEQ ID NO 9]”, in assay [1], the “specific CTL activity” value was “significant and specific CTL activity”; the “establishment of CTLs” value is recorded as “CTLs were successfully established”. Further, in assay [5], the “IFN-gamma production of CTLs stimulated with peptide, compared with the control” value was “potent IFN-gamma production”.
“VFEEPEDFL (peptide vaccine) [SEQ ID NO 4]”: in assay [1], the “specific CTL activity” value is “significant and specific CTL activity”; the “establishment of CTLs” value is “CTLs were successfully established”. In addition, the “IFN-gamma production of CTLs stimulated with peptide, compared with the control” value in assay [5] is on record as “potent IFN-gamma production”.
Regarding “WFTRMFAFF (peptide vaccine) [SEQ ID NO 7]”, in assay [1], the “specific CTL activity” value is “significant and specific CTL activity”; the “establishment of CTLs” value is “CTLs were successfully established”. Besides, in assay [5], the “IFN-gamma production of CTLs stimulated with peptide, compared with the control” value is listed as “potent IFN-gamma production”.
